Measurements from paper PMC7774326, “Inhibition of Soybean 15-Lipoxygenase and Human 5-Lipoxygenase by Extracts of Leaves, Stem Bark, Phenols and Catechols Isolated From Lithraea caustica (Anacardiaceae)” (Frontiers in Pharmacology, 2020).
Like-named read-outs stand apart in the source and are kept apart here.

What was measured:
[1] = biological target: T1, 15 soybean lipoxygenase (15-sLOX) (Glycine max, UniProt P08170); assay: In vitro assay of 15 soybean lipoxygenase inhibition; assay type: biochemical
T1 construct: purchased Cayman Chemical 60712
T1 sequence (P08170 1-839): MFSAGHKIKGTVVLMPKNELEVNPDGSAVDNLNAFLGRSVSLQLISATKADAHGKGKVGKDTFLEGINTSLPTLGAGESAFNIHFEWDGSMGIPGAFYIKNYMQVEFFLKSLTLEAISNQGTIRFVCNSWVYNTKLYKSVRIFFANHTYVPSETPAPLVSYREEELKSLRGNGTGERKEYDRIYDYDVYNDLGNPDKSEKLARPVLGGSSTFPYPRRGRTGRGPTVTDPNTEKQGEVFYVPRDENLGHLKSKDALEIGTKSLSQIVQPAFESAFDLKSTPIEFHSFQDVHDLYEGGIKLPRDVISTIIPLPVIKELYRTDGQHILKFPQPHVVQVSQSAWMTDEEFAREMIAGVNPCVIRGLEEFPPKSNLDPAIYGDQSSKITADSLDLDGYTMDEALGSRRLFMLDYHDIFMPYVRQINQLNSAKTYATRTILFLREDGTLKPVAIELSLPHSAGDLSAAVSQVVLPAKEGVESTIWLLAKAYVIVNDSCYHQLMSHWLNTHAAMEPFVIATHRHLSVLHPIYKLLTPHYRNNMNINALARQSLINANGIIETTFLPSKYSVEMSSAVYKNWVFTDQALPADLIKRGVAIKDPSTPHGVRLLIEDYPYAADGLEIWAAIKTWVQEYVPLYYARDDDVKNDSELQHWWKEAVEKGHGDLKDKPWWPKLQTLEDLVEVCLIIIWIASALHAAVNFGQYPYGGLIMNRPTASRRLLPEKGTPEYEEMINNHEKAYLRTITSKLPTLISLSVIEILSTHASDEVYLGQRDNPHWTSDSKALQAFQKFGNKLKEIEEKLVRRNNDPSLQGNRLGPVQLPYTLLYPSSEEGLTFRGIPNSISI
Protocol: Assays of inhibition of 15-sLOX were performed using a previous published methodology ([Tirapegui et al., 2017]), with minor modifications. In shortly, the activity of 15-sLOX (Cayman Chemical Item No. 60712) was determined following the formation of reaction products at 234 nm (ε = 25,000 M^−1cm^−1) with a Perkin-Elmer Lambda 25 UV/Vis (LabMakelaar Benelux B.V. Zuid-Holland, Nederland). All reactions were performed at a final volume of 2 ml and stirred using a magnetic bar at room temperature. The reaction medium used contained 0.1 M HEPES buffer (pH 7.4), Triton X-100 0.01%, and the linoleic acid substrate at a 10 μM concentration determine preliminary percent inhibition (% I). The concentration was determined quantitatively by allowing the enzymatic reaction to go to completion. The reaction was carried out by adding the inhibitor (sample) in methanol to the cuvette with the substrate buffer, and finally the enzyme was added. Nordihydroguaiaretic acid was used as positive control. Assays were performed in duplicate on two different days. IC50 values were determined by measuring enzyme activity at different concentrations of inhibitor dissolved in methanol; in the range of the initial velocity of the enzyme reaction. Finally, the inhibition% vs. the inhibitor concentration was plotted, giving a hyperbolic saturation curve using GraphPad Prism Demo.

[2] = biological target: T2, 5 human lipoxygenase (5-hLOX) (Homo sapiens, UniProt P09917); assay: In vitro assay of 5 human lipoxygenase inhibition; assay type: biochemical
T2 construct: purchased Cayman Chemical 60402
T2 sequence (P09917 1-674): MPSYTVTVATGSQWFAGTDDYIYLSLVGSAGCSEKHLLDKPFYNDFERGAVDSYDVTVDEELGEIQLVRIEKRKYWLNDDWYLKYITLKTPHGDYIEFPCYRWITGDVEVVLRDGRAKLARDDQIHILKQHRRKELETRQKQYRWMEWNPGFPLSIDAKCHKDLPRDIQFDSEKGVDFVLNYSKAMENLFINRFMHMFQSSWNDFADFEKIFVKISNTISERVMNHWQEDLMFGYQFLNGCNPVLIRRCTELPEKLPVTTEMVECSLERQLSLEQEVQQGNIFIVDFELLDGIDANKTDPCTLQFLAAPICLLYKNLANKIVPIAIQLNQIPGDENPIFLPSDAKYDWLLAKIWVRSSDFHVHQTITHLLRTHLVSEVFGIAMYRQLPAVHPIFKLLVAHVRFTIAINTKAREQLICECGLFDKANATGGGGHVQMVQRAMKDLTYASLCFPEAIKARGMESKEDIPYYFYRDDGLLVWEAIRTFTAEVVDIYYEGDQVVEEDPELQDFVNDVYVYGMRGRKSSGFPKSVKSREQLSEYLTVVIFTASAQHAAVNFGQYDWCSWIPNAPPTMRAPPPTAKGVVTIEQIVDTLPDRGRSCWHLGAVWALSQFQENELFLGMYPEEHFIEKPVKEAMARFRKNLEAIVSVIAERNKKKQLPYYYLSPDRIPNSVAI
Protocol: Assays of inhibition of 5-hLOX were performed using a previous published methodology ([Vásquez-Martínez et al., 2019]), with minor modifications. In shortly, the enzyme (Cayman Chemical Item No. 60402) was diluted (1:500) in the assay buffer (HEPES 50 mM, EDTA 2 mM, ATP 10 μM and CaCl2 10 μM at pH 7.5) and mixed with 10 μM of 2′,7′-dichlorofluorescin diacetate (H2DCFDA) dye. The reaction mixture was incubated for 15 min in the assay plate. Subsequently, 33.3 μl of assay buffer was added per well, and 3.3 μl of inhibitor was added to a final concentration of 10 μM; this reaction mixture was incubated for 30 min. The reaction was started by addition of AA (3.3 μM) and was incubated for 1 h and fluorescence was read in a multimode detector Synergy™ HT Multi-Mode Microplate Reader (Biotek, Winooski, VT, United States) at 480 nm excitation/ 520 nm emission after a reaction that had proceeded for 1 h at room temperature. The IC50 values were obtained using the nonlinear curve- fitting program of Graph Pad Prism Demo.

5-hLOX = tested on: 5-hLOX; set-up: method as in Sadik et al., 2003; conditions: known flavonoid inhibitors of 5-hLOX; ref Sadik et al., 2003; cited from earlier work
[3] = class symbol NA, read-out: IC50 5-hLOX Inhibition

Compound	IC50 [1] [µM]	IC50 [2] [nM]	IC50 (5-hLOX) [µM]	IC50 [2, 3] [nM]
CCCC/C=C\CCCCCCCCCc1cccc(O)c1O [Compound 2, 3-[(10Z)-pentadec-10′-en-1-yl]-catechol]	54.8	2090		
O=C(O[C@@H]1Cc2c(O)cc(O)cc2O[C@@H]1c1cc(O)c(O)c(O)c1)c1cc(O)c(O)c(O)c1 [(−)-epigallocatechin gallate]			3.1	
CCCCC=CCCCCCCCCCc1cccc(OC(C)=O)c1OC(C)=O [Compound 4]	> 124			> 124000
CCCCCCCCCCCCCCCc1cccc(O)c1O [Compound 3, 3-n-pentadecylcatechol]	55.3	2740		
O=c1c(O)c(-c2ccc(O)c(O)c2)oc2cc(O)cc(O)c12 [quercetin]			0.6	
CCCCCCCCCCCCCCCc1cccc(OC(C)=O)c1OC(C)=O [Compound 5]	> 124			> 124000
Oc1cc(O)c2c(c1)O[C@H](c1ccc(O)c(O)c1)[C@H](O)C2 [(−)-epicatechin]			22	
